Laboratory results as given in PMC8440923, “Peptides Targeting the Interaction Between Erb1 and Ytm1 Ribosome Assembly Factors” (Frontiers in Molecular Biosciences, 2021).
Residues, ends and D or L forms follow the SMILES beside them. No end group written: not given here. *: point of attachment. Biotin = O=C1N[C@H]2[C@H](CS[C@H]2CCCCC(=O)*)N1

Key:
Ytm1 [1] = target: T1, Ytm1 (Thermochaetoides thermophila, UniProt G0SFB5); assay: Biolayer interferometry peptide affinity assay, immobilized biotinylated peptide, Ytm1 analyte; parameters: species or system Chaetomium thermophilum; conditions: BLI, streptavidin biosensor, 50 µg/ml biotinylated peptide immobilized, read-out: ka (1/Ms) of Ytm1 binding to immobilized biotinylated peptide
T1 construct: 6xHis; made in house; host or cells: Sf9 insect cells (baculovirus)
T1 sequence (G0SFB5 1-495): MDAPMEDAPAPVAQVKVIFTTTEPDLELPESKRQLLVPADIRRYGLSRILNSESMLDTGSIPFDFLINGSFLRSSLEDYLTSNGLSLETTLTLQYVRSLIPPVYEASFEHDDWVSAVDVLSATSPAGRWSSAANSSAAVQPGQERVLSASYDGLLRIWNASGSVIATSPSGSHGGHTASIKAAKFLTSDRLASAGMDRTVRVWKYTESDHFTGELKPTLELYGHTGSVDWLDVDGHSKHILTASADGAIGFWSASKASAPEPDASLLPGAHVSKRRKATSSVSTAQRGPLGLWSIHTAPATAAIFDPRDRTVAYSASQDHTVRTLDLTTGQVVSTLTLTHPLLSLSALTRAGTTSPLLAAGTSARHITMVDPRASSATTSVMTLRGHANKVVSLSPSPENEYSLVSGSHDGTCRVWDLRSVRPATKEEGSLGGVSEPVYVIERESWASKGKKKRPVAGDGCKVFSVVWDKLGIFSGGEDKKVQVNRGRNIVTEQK
Experimental: (§1) Peptides were commercially obtained from Synpeptide Co., Ltd., Shanghai, China. All experiments have been made in triplicates and include control curves for bait and analyte only.
(§2) BLI was used to determine the affinity between Ytm1 and biotinylated peptides using streptavidin biosensors (FortéBio). The biosensors were hydrated 10 min in the same buffer used on the interference assay, with 0.05% (w/v) bovine serum albumin (BSA). 50 µg/ml of biotinylated peptide was immobilized at the streptavidin biosensor. Increasing concentrations of Ytm1 were used to calculate the KD values using the Blitz Pro 1.2 software using the implemented equations for association and dissociation:
Association phase: y=Rmax 1/1+kd/ka∗[Analyte](1−e^−(ka∗[Analyte]+kd)x) .
Dissociation phase: y=y0 e^−kd(x−x0). y0=Rmax 1/1+kd/ka∗[Analyte](1−e^−(ka∗[Analyte]+kd)x0).
According to P1, P3, and P6 results, a new N-terminal biotynilated peptide synthesis was ordered using the same sequences (Biot-P1, Biot-P3, and Biot-P6, Table 1). Biotynilated peptides Biot-P1 and Biot-P3 were immobilized to the streptavidin biosensor and Ytm1 binding was measured. Similarly, Biot-P6 was immobilized to the streptavidin biosensor followed by Erb1 binding. […] Inconsistent results were obtained in DSF using Erb1 and a proper Tm could not be obtained so thermal shift could not be evaluated for P6.

Erb1/Ytm1 complex [2] = target: T2, Erb1/Ytm1 complex (Thermochaetoides thermophila, UniProt G0SCK6); assay: Biolayer interferometry peptide interference assay, immobilized Ytm1, Erb1 analyte preincubated with P4-P6; assay type: binding, Chaetomium thermophilum; conditions: BLI, 20 µM Erb1 preincubated with equimolar peptide, reference without peptide 1.201e-3
T2 construct: 6xHis; made in house; host or cells: Erb1: Escherichia coli (DE3) BL21 CodonPlus (RIPL); Ytm1: Sf9 insect cells (baculovirus)

Ytm1 [3] = target: T1, Ytm1; assay: Differential scanning fluorimetry (thermofluor) of Ytm1 with peptide; assay type: binding, Chaetomium thermophilum; conditions: DSF, SYPRO Orange 1:1,000; 5 µM Ytm1, 1 mM peptide; 50 mM HEPES pH 7.5, 150 mM NaCl; 20-85°C at 1°C/min; triplicates
Experimental: Thermofluor assays ([Pantoliano et al., 2001]) were performed on a 7,500 Fast Real-Time PCR System (Applied Biosystems) measuring the gradual fluorescence generated by a 1:1,000 dilution of SYPRO Orange Protein Stain Gel (Supelco, Merck-Sigma) along with 1°C/min temperature increase from 20°C until 85°C.
The samples were mixed containing the protein Ytm1 at 5 µM in 50 mM HEPES pH 7.5, 150 mM NaCl and peptides P1-P3 at 1 mM concentration. Previously, lyophilized P2 and P3 were resuspended in the same Ytm1 buffer and P1 was solubilized in 10 mM Tris (hydroxymethyl)-methylamine (Tris-HCl), pH 8.8 for P1. Data of triplicated experiments were analyzed using GraphPad Prism 5.01 software.

Erb1/Ytm1 complex [4] = target: T3, Erb1/Ytm1 complex (Thermochaetoides thermophila, UniProt G0SFB5); assay: Biolayer interferometry peptide interference assay, immobilized Erb1, Ytm1 analyte preincubated with P1-P3; assay type: binding, Chaetomium thermophilum; conditions: BLI, 5 µM Ytm1 preincubated with equimolar peptide, reference without peptide 1.724e-3
T3 construct: 6xHis; made in house; host or cells: Ytm1: Sf9 insect cells (baculovirus); Erb1: Escherichia coli (DE3) BL21 CodonPlus (RIPL)
T3 sequence (G0SFB5 1-495): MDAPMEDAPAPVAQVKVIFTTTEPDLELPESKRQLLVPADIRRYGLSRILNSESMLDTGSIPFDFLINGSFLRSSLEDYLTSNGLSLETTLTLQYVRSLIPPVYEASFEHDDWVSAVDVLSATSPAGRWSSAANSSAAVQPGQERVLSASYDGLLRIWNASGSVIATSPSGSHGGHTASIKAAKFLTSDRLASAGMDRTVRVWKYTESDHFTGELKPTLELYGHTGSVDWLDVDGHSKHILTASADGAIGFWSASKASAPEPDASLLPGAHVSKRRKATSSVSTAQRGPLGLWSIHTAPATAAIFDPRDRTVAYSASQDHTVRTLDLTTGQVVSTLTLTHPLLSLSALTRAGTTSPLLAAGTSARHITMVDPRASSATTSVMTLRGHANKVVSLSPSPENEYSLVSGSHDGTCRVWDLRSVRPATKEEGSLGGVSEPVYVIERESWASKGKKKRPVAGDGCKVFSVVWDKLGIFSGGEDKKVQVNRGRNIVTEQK
Experimental: as §1
Potential interference peptide samples were evaluated by their ability to interfere the kinetics and affinity of the complex between Erb1 and Ytm1 as measured by Biolayer Interferometry (BLItz, Pall FortéBio Corp.) using Ni-NTA biosensors (FortéBio) and 50 mM HEPES, pH 7.5; 150 mM NaCl; 5% (v/v) glycerol; and 2 mM β-mercaptoethanol (BME) buffer. To set the reference KD, an 80 µg/ml solution of Erb1 was immobilized to the biosensor in order to obtain binding curves for increasing concentrations of Ytm1. According to this, an evaluation of Erb1-derived peptides (P1–P3) was performed using 5 µM Ytm1 previously incubated during 30 min at equimolar concentrations of each peptide. New KD values were determined. […]
Biolayer interferometry interference assays were used to evaluate the ability of each peptide to interfere in the in vitro formation of the Erb1/Ytm1 complex. […] Peptides were evaluated for their ability to decrease in the Erb1/Ytm1 complex formation by preincubating the analyte with each peptide derived from the immobilized partner. […] Erb1-derived peptides were evaluated by their ability to decrease Erb1/Ytm1 complex affinity. […]

Erb1 = assay: Biolayer interferometry peptide affinity assay, immobilized biotinylated peptide, Erb1 analyte; assay type: binding, Chaetomium thermophilum; conditions: BLI, streptavidin biosensor, Erb1 as analyte
Experimental: as §1
as §2, with “dissociation: […]” for “dissociation:”
According to P1, P3, and P6 results, a new N-terminal biotynilated peptide synthesis was ordered using the same sequences (Biot-P1, Biot-P3, and Biot-P6, Table 1). Biotynilated peptides Biot-P1 and Biot-P3 were immobilized to the streptavidin biosensor and Ytm1 binding was measured. Similarly, Biot-P6 was immobilized to the streptavidin biosensor followed by Erb1 binding. […] To further confirm the interaction a differential scanning fluorimetry assay was performed. […] Inconsistent results were obtained in DSF using Erb1 and a proper Tm could not be obtained so thermal shift could not be evaluated for P6.

[5] = target: T4, Ytm1 (Chaetomium thermophilum ribosome assembly factor) (Chaetomium thermophilum, UniProt G0SFB5 1-495); assay: BLI
T4 chain: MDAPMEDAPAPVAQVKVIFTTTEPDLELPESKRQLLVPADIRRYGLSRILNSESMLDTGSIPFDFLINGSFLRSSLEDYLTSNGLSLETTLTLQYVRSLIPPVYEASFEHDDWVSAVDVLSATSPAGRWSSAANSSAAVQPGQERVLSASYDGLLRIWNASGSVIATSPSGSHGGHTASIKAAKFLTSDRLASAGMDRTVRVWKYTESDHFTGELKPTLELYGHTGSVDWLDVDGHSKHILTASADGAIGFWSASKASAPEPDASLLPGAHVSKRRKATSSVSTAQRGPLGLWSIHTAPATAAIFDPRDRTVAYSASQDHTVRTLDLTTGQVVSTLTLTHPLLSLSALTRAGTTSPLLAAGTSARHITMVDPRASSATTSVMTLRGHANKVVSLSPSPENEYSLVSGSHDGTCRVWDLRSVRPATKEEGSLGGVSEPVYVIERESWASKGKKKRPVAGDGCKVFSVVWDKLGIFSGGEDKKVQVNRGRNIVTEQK

[6] = target: T5, Ytm1 (Chaetomium thermophilum ribosome assembly factor) (Chaetomium thermophilum, UniProt G0SFB5 1-495); assay: BLI; biotinylated peptide (50 µg/ml) immobilised on streptavidin biosensor; Ytm1 (or Erb1 for Biot-P6) as analyte; interference-assay buffer with 0.05% BSA; conditions: both partners purified
T5 construct: Ytm1, Chaetomium thermophilum; YTM1 gene amplified from total cDNA and cloned in pOPIN-F; For MST, Ytm1 was labelled with the Red-NHS second-generation dye; source: Sf9 insect cells (baculovirus), purified (Histrap-HP Ni, Superdex 200 SEC)
T5 sequence: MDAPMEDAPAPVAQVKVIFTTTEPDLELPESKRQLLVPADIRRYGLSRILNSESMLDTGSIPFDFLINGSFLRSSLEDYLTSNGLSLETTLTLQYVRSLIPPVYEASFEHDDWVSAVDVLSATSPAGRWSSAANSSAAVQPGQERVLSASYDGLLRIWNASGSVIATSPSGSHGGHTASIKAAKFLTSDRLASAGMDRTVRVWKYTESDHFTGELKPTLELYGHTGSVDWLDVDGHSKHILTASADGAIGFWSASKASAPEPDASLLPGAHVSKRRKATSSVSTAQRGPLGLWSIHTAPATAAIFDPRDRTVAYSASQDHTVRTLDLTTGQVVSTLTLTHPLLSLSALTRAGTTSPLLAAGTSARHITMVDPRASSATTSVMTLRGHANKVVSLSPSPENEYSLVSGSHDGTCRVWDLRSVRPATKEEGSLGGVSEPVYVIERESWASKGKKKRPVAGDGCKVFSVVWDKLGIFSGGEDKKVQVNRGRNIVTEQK

[7] = target: T5, Ytm1 (Chaetomium thermophilum ribosome …); assay: MST; 5 nM Ytm1 labelled with Red-NHS second-generation dye; 50 mM HEPES pH 7.5, 150 mM NaCl, 0.1% Pluronic F-127; peptide in sixteen serial dilutions (P1 1,230-0.0751 µM; P3 maximum 1,580 µM); Monolith NT.115; conditions: both partners purified

T2 sequence (G0SCK6 whole entry, one chain of several): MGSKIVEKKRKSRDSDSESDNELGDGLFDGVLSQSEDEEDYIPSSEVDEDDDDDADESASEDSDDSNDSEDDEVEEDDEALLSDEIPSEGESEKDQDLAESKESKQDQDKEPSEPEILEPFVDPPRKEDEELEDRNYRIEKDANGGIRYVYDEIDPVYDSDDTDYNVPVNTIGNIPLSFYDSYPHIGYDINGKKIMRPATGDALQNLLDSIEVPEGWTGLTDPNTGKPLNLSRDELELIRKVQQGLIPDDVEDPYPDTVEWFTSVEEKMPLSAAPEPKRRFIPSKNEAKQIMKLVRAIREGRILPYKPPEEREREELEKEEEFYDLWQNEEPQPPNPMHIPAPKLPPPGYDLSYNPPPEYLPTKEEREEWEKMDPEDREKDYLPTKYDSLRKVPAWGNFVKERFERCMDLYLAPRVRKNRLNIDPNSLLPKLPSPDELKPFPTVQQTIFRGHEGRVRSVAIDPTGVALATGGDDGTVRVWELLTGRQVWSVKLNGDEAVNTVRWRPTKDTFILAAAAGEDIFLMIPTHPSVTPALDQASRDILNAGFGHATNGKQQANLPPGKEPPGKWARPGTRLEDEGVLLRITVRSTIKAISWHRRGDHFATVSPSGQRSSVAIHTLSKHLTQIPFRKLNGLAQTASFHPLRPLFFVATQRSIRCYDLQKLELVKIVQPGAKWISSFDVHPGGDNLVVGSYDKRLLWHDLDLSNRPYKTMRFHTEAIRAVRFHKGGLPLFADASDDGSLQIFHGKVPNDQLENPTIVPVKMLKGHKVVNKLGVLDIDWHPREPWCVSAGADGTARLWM

## CC(C)C[C@H](NC(=O)[C@H](CCC(=O)O)NC(=O)[C@H](Cc1c[nH]c2ccccc12)NC(=O)[C@@H](NC(=O)CCCC[C@@H]1SC[C@@H]2NC(=O)N[C@@H]21)C(C)C)C(=O)N[C@@H](CC(C)C)C(=O)N[C@H](C(=O)NCC(=O)N[C@@H](CCCNC(=N)N)C(=O)N[C@@H](CCC(N)=O)C(=O)N[C@H](C(=O)N[C@@H](Cc1c[nH]c2ccccc12)C(=O)O)C(C)C)[C@@H](C)O [Biot-P1] (Biotin-VWELLTGRQVW-OH)
Ytm1 [1]
  kon: 386 M⁻¹ s⁻¹

## HDDWVSA [Peptide P4, Ytm1-derived peptide HDDWVSA, residues 110–116]
Erb1/Ytm1 complex [2]
  kd (1/s) of Ytm1/Erb1 binding after preincubation of Erb1 with peptide: 0.001585 s⁻¹

## QQTIFRGH [Peptide P2, Erb1-derived peptide QQTIFRGH, residues 445–452]
Ytm1 [3]
  Thermal shift (Tm) of Ytm1 in the presence of peptide: no significant thermal shift
Erb1/Ytm1 complex [4]
  kd (1/s) of Erb1/Ytm1 binding after preincubation of Ytm1 with peptide: 0.01393 s⁻¹

## AGMDRTV [Peptide P5, Ytm1-derived peptide AGMDRTV, residues 194–200]
Erb1/Ytm1 complex [2]
  kd (1/s) of Ytm1/Erb1 binding after preincubation of Erb1 with peptide: 0.001655 s⁻¹

## CC(C)[C@H](NC(=O)[C@H](CS)NC(=O)[C@H](Cc1c[nH]c2ccccc12)NC(=O)[C@@H]1CCCN1C(=O)[C@H](CCC(=O)O)NC(=O)[C@H](CCCNC(=N)N)NC(=O)[C@@H]1CCCN1C(=O)[C@H](Cc1c[nH]cn1)NC(=O)[C@H](Cc1c[nH]c2ccccc12)NC(=O)[C@H](CC(=O)O)NC(=O)CCCC[C@@H]1SC[C@@H]2NC(=O)N[C@@H]21)C(=O)O [Biot-P3] (Biotin-DWHPREPWCV-OH)
Ytm1 [1]
  kon: 829 M⁻¹ s⁻¹

## Biotin-RGHANKV [Biot-P6]
Erb1
  Binding of Erb1 to immobilized biotinylated peptide: could not detect binding
Erb1; listed as biot-P6
  Binding of Erb1 to immobilized biotinylated peptide: did not show binding

B1: Biot-P1 (N-terminally biotinylated Erb1 479-489) (peptide)
peptide: Biotin-VWELLTGRQVW
notes: Erb1, Chaetomium thermophilum, residues 479-489; source: synthetic peptide, bought: Synpeptide Co., Ltd., Shanghai
[5]
  Kd: 33.4 µM
[6]
  binding result: binds

B2: Biot-P3 (N-terminally biotinylated Erb1 780-789) (peptide)
peptide: Biotin-DWHPREPWCV
notes: Erb1, Chaetomium thermophilum, residues 780-789; source: synthetic peptide, bought: Synpeptide Co., Ltd., Shanghai
[5]
  Kd: 6.29 µM
[6]
  binding result: binds

B3: Peptide P1 (Erb1 479-489) (peptide)
peptide: VWELLTGRQVW
notes: as for B1
[7]
  Kd: 8.2 µM
